Results published in article PMC9570594, “Development of Novel Pyridine-Thiazole Hybrid Molecules as Potential Anticancer Agents” (Molecules, 2022).

Legend:
K-562 (Leukemia) = test: NCI five-dose SRB assay; assay type: cell-based; conditions: Homo sapiens, K562, 48 h
[1] = test system: HOP-92 (Non-Small Cell Lung Cancer); test: NCI five-dose SRB assay; assay type: cell-based; conditions: Homo sapiens, 48 h
[2] = test system: NCI-H522 (Non-Small Cell Lung Cancer); test: NCI five-dose SRB assay; assay type: cell-based; conditions: Homo sapiens, 48 h
HCC-2998 (Colon Cancer) = test: NCI five-dose SRB assay; assay type: cell-based; conditions: Homo sapiens, 48 h
HCT-116 (Colon Cancer) = test: NCI five-dose SRB assay; assay type: cell-based; conditions: Homo sapiens, 48 h
[3] = test system: Colon Cancer cell lines (MG_MID); test: NCI five-dose SRB assay; assay type: cell-based; conditions: Homo sapiens, 48 h
SF-539 (CNS Cancer) [4] = test: NCI five-dose SRB assay; assay type: cell-based; conditions: Homo sapiens, 48 h
MALME-3M (Melanoma) = test: NCI five-dose SRB assay; assay type: cell-based; conditions: Homo sapiens, 48 h
M14 (Melanoma) = test: NCI five-dose SRB assay; assay type: cell-based; conditions: Homo sapiens, 48 h
[5] = test system: Ovarian Cancer cell lines (MG_MID); test: NCI five-dose SRB assay; assay type: cell-based; conditions: Homo sapiens, 48 h
786-0 (Renal Cancer) = test: NCI five-dose SRB assay; assay type: cell-based; conditions: Homo sapiens, 48 h
SN12C (Renal Cancer) = test: NCI five-dose SRB assay; assay type: cell-based; conditions: Homo sapiens, 48 h
[6] = test system: Renal Cancer cell lines (MG_MID); test: NCI five-dose SRB assay; assay type: cell-based; conditions: Homo sapiens, 48 h
[7] = test system: Prostate Cancer cell lines (MG_MID); test: NCI five-dose SRB assay; assay type: cell-based; conditions: Homo sapiens, 48 h
MCF-7 (Breast Cancer) = test: NCI five-dose SRB assay; assay type: cell-based; conditions: Homo sapiens, MCF7, 48 h
HS 578T (Breast Cancer) = test: NCI five-dose SRB assay; assay type: cell-based; conditions: Homo sapiens, 48 h
[8] = test system: MDA-MB-468 (Breast Cancer); test: NCI five-dose SRB assay; assay type: cell-based; conditions: Homo sapiens, 48 h
MCF-7 cell line = test: Time-dependent viability test (MTT); assay type: cell-based, human; conditions: MCF-7, 10 µM
Protocol: A strong correlation was detected between the treatment time and an anti-proliferative potential. The cytotoxic effect of this compound develops after […] of incubation. This feature may explain the difference of cell viability compared with the NCI results which were obtained at 48th hour of incubation of cells with derivative 4. […] The result obtained at 48th hour of treatment of the MCF-7 cells with the compound 4 in concentration 10 µM correlates to some extent with data of the NCI screening. At that time point, 43% of the cells died.
Time-dependent viability data were obtained as a result of 24, 48, 72, and 124 h MTT tests performed on the MCF-7 cells treated with the compound 4 (10 μM).

MCF-7 cells [9] = test: Clonogenic assay; assay type: cell-based, human; conditions: 10 days
Protocol: This assay essentially tests every cell in the population for its ability to undergo “unlimited” division. […] At 1 µM concentration, it reduced the ability of the MCF-7 single cell to grow into a colony to 36%. […] With a concentration equivalent to 10 µM of the compound 4, the DMSO increased the cell’s ability to grow in colony.
MCF-7 cells were seeded in triplicate in 6-well plates (CytoONE, STARLAB International GmbH, Germany) at a density of 500 cells per well. After 24 h incubation, the compound 4 was added in 1 and 10 μM concentrations and cells were treated for 10 days. Colonies containing ≥ 50 cells were fixed with 50% (v/v) methanol in the PBS and stained with crystal violet (Sigma-Aldrich, Burlington, MA, USA). Stained colonies were counted and expressed as a fraction of the untreated control.

[10] = test system: MCF-7 breast cancer cells; test: Soft agar drug sensitivity assay; assay type: cell-based, human; conditions: MCF-7, 1 and 5 µM, day 12
Protocol: It was proposed that testing of drugs in a 3-dimensional (3D) format, such as soft agar, is more similar to the in vivo cellular microenvironment and the results of such testing have a good correlation with in vivo conditions.
Five hundred MCF-7 breast cancer cells in 0.5% sterile agar (Bacto-Agar, Difco Laboratories) were layered on a preformed 0.8% sterile agar layer using 24 well plate (CytoONE, STARLAB International GmbH, Hamburg, Germany). The cells in agar were treated with the compound 4 at concentrations of 1 and 5 µM/mL. Doxorubicin was used as a positive control. The 0.5% agar layer included DMEM medium containing 10% FBS, cells, and tested compounds. The 0.8% agar layer included DMEM medium. Colonies with a size of >50 µm were counted under the microscope and photographed after 12 days.

MCF-7 cells [11] = test: PARP-1 inhibition in vitro: MTT after Fluzoparib pretreatment; assay type: cell-based, human; conditions: Homo sapiens, MCF7; MCF-7, compound alone (no preincubation), 72 h MTT; read-out: IC50
Protocol: Taking into account the above data, PARP1 inhibition in vitro was investigated using pretreatment of the MCF-7 cells with the Fluzoparib, a potent PARP1 inhibitor in the non-toxic concentrations of 5, 10, and 15 µM. It had no significant growth inhibitory effect in such doses, and a reduction of cell viability by only 10–12% was observed compared to control (non-treated) cells. […] The preincubation step was used to bind PARP1 molecules, which were the potential targets of the studied compounds and to test if it would affect the activity of 3 and 4. […] The preincubation of cells with the Fluzoparib decreased their sensitivity to the compound 3 treatment in a less pronounced manner, compared with the effect of the compound 4. […] Changes in structure of the started compound 3 may cause an enhancement of the ability of molecule 4 to inhibit the activity of PARP1.
To determine PARP inactivation, the MCF-7 cells were pretreated for 2 h in the non-toxic concentrations of 5, 10, 15 µM of the Fluzoparib (Med Chem Express, Monmouth Junction, NJ, USA), a potent PARP1 inhibitor used in the chemotherapy. Then, the medium was removed and increasing doses of the compounds 3 and 4 were added and cells were incubated for the next 72 h. The IC50 values of compounds were determined by the MTT assay, as described.

[12] = test system: NCI-H460 (Non-Small Cell Lung Cancer); test: NCI one-dose SRB assay; conditions: 10 μM, 48 h
Protocol: Tested compounds were added to the culture at a single concentration (10^−5 M) and the cultures were incubated for 48 h. End point determinations were made with a protein binding dye, Sulphorhodamine B (SRB). […] The percentage growth was evaluated spectrophotometrically versus controls not treated with test agents.

[13] = test system: NCI-H522 (Non-Small Cell Lung Cancer); test: NCI one-dose SRB assay; conditions: 10 μM, 48 h
Protocol: Primary anticancer assays (Table 3) on a panel of 60 cancer cell lines at one dose-assay (10^−5 M) were performed according to the NCI protocol, as described elsewhere [31, 32, 33, 34, 35].
(§1) A primary anticancer assay was performed on a panel of approximately sixty human tumor cell lines derived from nine neoplastic diseases, in accordance with the protocol of the Drug Evaluation Branch, National Cancer Institute, Bethesda [31, 32, 33, 34, 35]. Tested compounds were added to the culture at a single concentration (10^−5 M) and the cultures were incubated for 48 h. End point determinations were made with a protein binding dye, Sulphorhodamine B (SRB). […] The percentage growth was evaluated spectrophotometrically versus controls not treated with test agents.

SF-539 (CNS Cancer) [14] = test: NCI one-dose SRB assay; conditions: 10 μM, 48 h
Protocol: as §1

In the case of `CCOC(=O)c1ccc(NC(=O)CSC(CC(=O)c2sc(Nc3ccccn3)nc2C)c2ccccc2F)cc1` (stereo not drawn) [Compound 4, Ethyl 4-[[2-[1-(2-Fluorophenyl)-3-[4-methyl-2-(2-pyridylamino)thiazol-5-yl]-3-oxopropyl]sulfanylacetyl]amino]benzoate], the GI50 (K-562 (Leukemia)) is reported as 30.4 µM, the GI50 [1] is reported as 12.5 µM and the GI50 [2] is reported as 21.6 µM. It also gave a GI50 (HCC-2998 (Colon Cancer)) of 23.1 µM, a GI50 (HCT-116 (Colon Cancer)) of 23 µM and a GI50 [3] of 51.6 µM. For the same compound, the GI50 (SF-539 (CNS Cancer) [4]) was 32.5 µM, the GI50 (MALME-3M (Melanoma)) was 25.4 µM and the GI50 (M14 (Melanoma)) was 19.4 µM. It also gave a GI50 [5] of 41.1 µM, a GI50 (786-0 (Renal Cancer)) of 24.8 µM and a GI50 (SN12C (Renal Cancer)) of 28 µM. It also gave a GI50 [6] of 33.4 µM, a GI50 [7] of 45.5 µM and a GI50 (MCF-7 (Breast Cancer)) of 15.4 µM. The GI50 (HS 578T (Breast Cancer)) was 14.9 µM, the GI50 [8] was 4.24 µM and the cells killed (MCF-7 cell line; 24 h) was 19.9%. The cells died (MCF-7 cell line; 48 h) was 43%, the cells died (MCF-7 cell line; 124 h) was 90% and the “ability of single cell to grow into a colony (compared with control)” value (MCF-7 cells [9]; MCF-7, 1 µM) was 36%. For the same compound, the colony formation (MCF-7 cells [9]; MCF-7, 10 µM) was “No colony formation was observed”, the “size and number of colonies in soft agar” value [10] was “reduces the size and number of colonies” and the IC50 (MCF-7 cells [11]) was 3.53 µM. For the same compound, the Growth % [12] was −40.69%, the Growth % [13] was −22.73% and the Growth % (SF-539 (CNS Cancer) [14]) was −27.26%.
